Test results published in ChEMBL document CHEMBL3638506, “Conjugated 3-(indolyl)- and 3-(azaindolyl)-4-arylmaleimide compounds and their use in tumor treatment” (2015).

Target: Glycogen synthase kinase-3 beta (Homo sapiens, UniProt P49841)
Test: Kinase Assay: The effect of test compounds on the activity of the protein kinases GSK-3β, VEGFR-2 and FLT-3 was evaluated based on half maximal inhibitory concentration (IC50) values determined by Millipore UK Ltd; Gemini Crescent; Dundee Technology Park; Dundee DD2 1SW; UK (IC50Profiler). Detailed protocols can be found at: www.millipore.com/drugdiscovery/dd3/assayprotocols.

Chain of Glycogen synthase kinase-3 beta (P49841 whole entry): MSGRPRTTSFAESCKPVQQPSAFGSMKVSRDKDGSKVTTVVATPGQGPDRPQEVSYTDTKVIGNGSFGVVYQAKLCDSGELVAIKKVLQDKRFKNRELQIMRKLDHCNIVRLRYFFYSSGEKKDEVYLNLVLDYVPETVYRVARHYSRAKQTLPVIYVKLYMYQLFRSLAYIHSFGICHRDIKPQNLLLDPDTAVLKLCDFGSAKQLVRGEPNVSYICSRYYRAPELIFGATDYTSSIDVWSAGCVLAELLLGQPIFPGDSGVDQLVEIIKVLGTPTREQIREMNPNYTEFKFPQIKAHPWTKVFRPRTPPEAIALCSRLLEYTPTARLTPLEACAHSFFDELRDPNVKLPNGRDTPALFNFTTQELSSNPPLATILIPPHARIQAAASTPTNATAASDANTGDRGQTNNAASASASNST

IC50: 3.39 µM
SMILES: COc1cc(C2=C(c3cn(CCCO)c4ccccc34)C(=O)NC2=O)cc(OC)c1OC
